In PubChem BioAssay AID1996:
≈ marks a conversion by molar mass, not a printed value.

conditions: buffer; pH 7.4; 200.0 µM

Compound	solubility kinetic [µg/mL]
Cc1cn(C2CC(OC(=O)C(C)C)C(CO)O2)c(=O)[nH]c1=O (stereo not drawn)	> 46.8
O=C(COC(=O)/C=C/c1ccccc1Cl)NC(=O)NC1CCCC1	8.2 (≈ 23.4 µM)
C=CCOC(=O)Cn1cnc2c(sc3nc(C)cc(C)c32)c1=O	3.2 (≈ 9.72 µM)
O=C(O)C1C2CCC(C2)C1C(=O)Nc1ccccc1 (stereo not drawn)	38.8 (≈ 150 µM)
O=C(Cc1c(Cl)cccc1Cl)NC1CC1	> 36.6
O=C(CN1C(=O)NC2(CCCC2)C1=O)NCc1ccccc1	> 45.2
O=S(=O)(CCc1ccncc1)Cc1ccc2c3c(cccc13)CC2	11.8 (≈ 35 µM)
Cc1ccc(NC(=O)CN(C)CCOc2ccccc2)c([N+](=O)[O-])c1	< 0.2
Cc1ccc(CNC(=O)CCSCc2ccccc2C)cc1	6.5 (≈ 20.7 µM)
COc1ccc(OC)c(CN2CCSCC2)c1	25.5 (≈ 101 µM)
CC1(C)COC(Cn2c3ccccc3c3ccccc32)O1 (stereo not drawn)	< 0.6
Nc1ccccc1-n1c(=O)n(Cc2ccccc2F)c(=O)c2[nH]cnc21	35 (≈ 99.6 µM)
Cc1nc(SCC(=O)NC(=O)NC2CCCCC2)nc(C)c1C	47.8 (≈ 142 µM)
CC(C)CN1CCN(Cc2cccn2-c2cccnc2)CC1CCO (stereo not drawn)	28.8 (≈ 84.1 µM)
Cc1ccc(S(=O)(=O)c2c[nH]c3ccc(C)cc3c2=O)cc1	< 0.7
CCCCON1C(=O)c2cccc3cccc(c23)C1=O	8.8 (≈ 32.7 µM)
CCCCNC(=O)c1cc2cccc([N+](=O)[O-])c2[nH]1	27.3 (≈ 104 µM)
Cc1cnc(C(=O)OCC(=O)N2CC(C)CC(C)C2)cn1 (stereo not drawn)	43.3 (≈ 149 µM)
CCOc1ccccc1C(=O)NCC(=O)OCCOc1cccc(Cl)c1	34 (≈ 90 µM)
Cc1nn(C)cc1C(C)Nc1nc2nonc2nc1N1CCCCC1 (stereo not drawn)	> 51.4
CCCCc1nc2sc3c(c2c(=O)[nH]1)CC(C)(C)OC3	2.3 (≈ 7.87 µM)
O=C(CN1C(=O)COc2ccccc21)NCC1CCCO1 (stereo not drawn)	> 43.5

Compound	solubility kinetic [µg/mL]
CN1CCN(S(=O)(=O)c2ccc3c(c2)CC(=O)N3C)CC1	> 46.4
COc1cccc(-c2c(C#N)c(N)nc3c2c(=O)nc2sccn23)c1	23 (≈ 65.8 µM)
CC(C)CNS(=O)(=O)c1ccc(CCC(=O)N2CCCC2)cc1	> 50.8
CC(=O)O/C(=C\c1cn(C(C)=O)c2ccccc12)C(=O)O	> 43.1
COC(=O)c1c(C)[nH]c(C(=O)OCC(=O)c2c(N)n(CC(C)C)c(=O)n(C)c2=O)c1C	14 (≈ 32.2 µM)
Cn1ccsc1=NC(=O)c1ccccc1OC(F)F	38.7 (≈ 136 µM)
Cc1[nH]c2ccccc2c1C(=O)CN1CCCC(C)C1 (stereo not drawn)	40.5 (≈ 150 µM)
Cc1nc(N2CCCCC2)sc1C=O	> 31.5
COc1ccc(N2C(=O)CCC2=O)c(OC)c1	33.8 (≈ 144 µM)
CC(C)[C@H](NC(=O)c1ccccc1F)C(=O)OCCN1C(=O)c2ccccc2C1=O	> 61.9
Cc1ccc(C)c(NS(=O)(=O)c2ccccc2C)c1	38.8 (≈ 141 µM)
CCOC(=O)C1=C(C)N=C2SC(C)C(=O)N2C1c1ccccc1 (stereo not drawn)	48.5 (≈ 147 µM)
CCOP(=O)(OCC)C(Nc1ccccc1)c1ccco1 (stereo not drawn)	> 46.4
Cn1ccc(C(=O)N/N=C/c2ccncc2)n1	> 34.4
Cc1cc2oc(C(=O)Nc3nonc3C)c(C)c2cc1Cl	< 0.2
COc1ccccc1C(C)NCC(=O)Nc1c(F)cccc1F (stereo not drawn)	> 48.1
O=S(=O)(c1ccccc1)N(Cc1cccc(F)c1)c1ccccc1	< 0.7
Cc1ccc(C)c(NC(=S)N2CCN(S(C)(=O)=O)CC2)c1	> 49.1
COc1cc(C(=O)OC2CCOC2=O)c([N+](=O)[O-])cc1OC (stereo not drawn)	> 46.7
COc1cc(OC)cc(C(=O)NCC(=O)OC(C)C(=O)NC(C)C2CC3CCC2C3)c1 (stereo not drawn)	> 64.9
CCCn1c(C)c(C(=O)OCC)c(O)c(-c2ccccc2)c1=O	> 47.3
CN(C)CCNC(=O)C(=O)Nc1cc2c3c(c1)CCC(=O)N3CCC2	50.9 (≈ 148 µM)

Compound	solubility kinetic [µg/mL]
COCCNC(=O)C(C)OC(=O)C1=Cc2ccccc2OC1 (stereo not drawn)	> 45.8
Cl.O=C(OCC1CCNCC1)c1ccc2c(c1)OCO2	> 45
Cc1ccc(S(=O)(=O)N2CCOC2C(Cl)(Cl)Cl)cc1 (stereo not drawn)	2.6 (≈ 7.54 µM)
N#Cc1cnc(N)c(Br)c1	27.8 (≈ 140 µM)
CC(C)c1nc2sc3c(=S)nc[nH]c3c2c2c1CCC2	4.5 (≈ 14.9 µM)
COc1ccc(OC)c(NC(=O)COC(=O)/C=C/c2ccco2)c1	10.4 (≈ 31.4 µM)
CN=C(NC1CCCCC1)c1ccc([N+](=O)[O-])cc1	> 39.2
Cc1ccc(S(=O)(=O)Cc2ccc([N+](=O)[O-])cc2)cc1	< 0.6
COc1ccccc1-c1noc(CCC(=O)NC2CCCC2)n1	> 47.3
Fc1ccc(CNC(=S)NCc2ccccc2)cc1	11 (≈ 40.1 µM)
O=C(O)CCC(=O)Nc1cc(C(F)(F)F)cc(C(F)(F)F)c1	43.6 (≈ 132 µM)
COC(=O)CSc1nc(C)c2c(n1)CCCC2	37.6 (≈ 149 µM)
COc1ccc(/C=C/C(=O)c2c(C)cc(C)[nH]c2=O)c2ccccc12	15.7 (≈ 47.1 µM)
C=CC[n+]1ccc(/C=C2\C=Cc3cc(C)ccc3N2CC)c2ccccc21.[Br-]	> 53
O=C(Nc1ccccc1Cl)C1C(c2ccccc2)C1(Cl)Cl (stereo not drawn)	< 0.7
Cc1ccc2[nH]cc(S(=O)(=O)c3ccc(C(C)C)cc3)c(=O)c2c1	< 0.7
CCc1c(SCCC(=O)O)nc2ccccc2c1C	> 41.3
Cc1ccc(S(=O)(=O)NCCNc2ccc([N+](=O)[O-])cc2)cc1	32.8 (≈ 97.8 µM)
Cc1cc(NC(=O)COc2ccc(C)c(C)c2)no1	0.7 (≈ 2.69 µM)
c1ccc2c(CN3CCOCC3)c[nH]c2c1	> 32.4
COc1ccc(OC)c(Nc2ncnc3sccc23)c1	42.2 (≈ 147 µM)

The next lines start with the values.

solubility kinetic [µg/mL]	Compound
3.8 (≈ 16.1 µM)	Cc1cc(C(=O)Nc2ccc(Cl)cc2)on1
37.6 (≈ 132 µM)	Cc1noc(C)c1C(=O)Nc1ccccc1N1CCCC1
> 49.7	COC(=O)c1[nH]c2ccccc2c1NC(=O)C(C)N1CCOCC1 (stereo not drawn)
< 0.4	Cn1c(SCc2cccc(Br)c2)nc2ccccc2c1=O
2.6 (≈ 8.74 µM)	NC(=O)c1ccc(Nc2ccc3c(c2)CCC3)c([N+](=O)[O-])c1
> 27.8	Cc1ccc2cc3c(nc2c1)OCC3
> 40.3	CC(C)CC(=O)Nc1ccc(Cc2ccncc2)cc1
> 41.4	COc1ccc(NC(=O)c2nn(C)cc2[N+](=O)[O-])cc1
> 45.3	COc1cc([N+](=O)[O-])ccc1NC(=O)NCc1ccccn1
40.5 (≈ 138 µM)	O=C1c2ccsc2SCCN1Cc1ccc(F)cc1
> 46.3	O=C(c1ccc(Cl)s1)N1CCN(c2ncccn2)CC1
> 57.2	COc1ccc(C(=O)NCCCNC(=O)c2cc3ccccc3[nH]2)cc1OC
18.1 (≈ 46.5 µM)	O=C(c1ccco1)N1CCN(S(=O)(=O)c2cc(Cl)ccc2Cl)CC1
> 51.8	CC1Cc2ccccc2N1CC(=O)Nc1cccc(S(N)(=O)=O)c1 (stereo not drawn)
> 51.2	Cc1ccc(OCC(=O)NCCCNC(=O)c2ccc(C)nc2)cc1
34.7 (≈ 105 µM)	CC12CCC(C(=O)Nc3nc4ccccc4s3)(OC1=O)C2(C)C (stereo not drawn)
50.3 (≈ 148 µM)	COc1cccc(N2CCN(CC(=O)NCc3ccccc3)CC2)c1
> 58.6	COc1ccccc1NC(=O)c1ccccc1NC(=O)c1ccccc1C(=O)O
29.5 (≈ 90.4 µM)	CCOC(=O)n1c(=O)n(Cc2ccc(OC)cc2)c2ccccc21
1.6 (≈ 5.92 µM)	O=C(Nc1ccc2c(c1)CCC2)Nc1ccccc1F
> 42.5	O=C(c1cccc(Oc2ccccc2)c1)N1CCOCC1
28.1 (≈ 70.7 µM)	COc1cccc(C(=O)OCC(=O)N2CCC(Cc3ccccc3)CC2)c1OC
2.1 (≈ 6.25 µM)	O=C(Nc1cccc(/C=C/c2ccccn2)c1)c1cc(Cl)ccn1
< 0.3	COc1ccc(CNC(=O)c2cc3c(=O)[nH]c4ccccc4c3n2C)cc1
6.6 (≈ 19.6 µM)	COc1ccc(CCNC(=O)c2cc(=O)c3cc(C)ccc3o2)cc1
2.1 (≈ 6.04 µM)	O=C(CCCc1nc(-c2ccc(Cl)cc2)no1)NC1CCCCC1
32.2 (≈ 112 µM)	COc1ccc(C2c3ccsc3CCN2C(C)=O)cc1 (stereo not drawn)

solubility kinetic [µg/mL]	Compound
> 52	O=C(O)c1ccc(Cn2c(=S)[nH]c3cc(Cl)ccc3c2=O)cc1
> 43.4	CCNC(=O)N1CCC(c2nc3ccccc3s2)CC1
8.7 (≈ 24.5 µM)	Nc1nc2ccc(C(=O)Nc3ccc(N4CCOCC4)cc3)cc2s1
0.7 (≈ 2.76 µM)	Cc1ccc(NC(=O)C(=O)c2ccc(C)cc2)cc1
> 52	O=C(c1ccc(NS(=O)(=O)c2ccccc2)cc1)N1CCOCC1
< 0.2	Cn1c(/C(C#N)=C(\O)c2ccc([N+](=O)[O-])cc2)nc2ccccc21
21.4 (≈ 61.6 µM)	COc1ccccc1NS(=O)(=O)c1cc(N)ccc1N1CCCC1
46.6 (≈ 130 µM)	Cc1cccc2sc(NC(=O)CN3C(=O)NC4(CCCC4)C3=O)nc12
< 0.2	Cc1cccn2c(=O)c(/C=N/O)c(NCc3ccccc3)nc12
1 (≈ 2.61 µM)	CC(C)C(=O)NC(=S)Nc1ccc(S(=O)(=O)NC2CCCCC2)cc1
34.2 (≈ 139 µM)	Cc1ccc(N2C(=O)C3CCCN3C2=S)cc1 (stereo not drawn)
60.7 (≈ 144 µM)	COC(=O)c1ccc(CNC(=O)[C@@H]2CCCN2S(=O)(=O)c2ccccc2F)cc1
32.7 (≈ 144 µM)	Cc1ccc(NC(=O)c2cnccn2)c(C)c1
3 (≈ 11.5 µM)	Cc1cnc(NC(=O)CC(C)c2ccccc2)s1 (stereo not drawn)
16 (≈ 52.9 µM)	COc1ccc(CCNC(=O)c2cccnc2SC)cc1
12 (≈ 32.7 µM)	Cc1onc(-c2c(Cl)cccc2Cl)c1C(=O)N=C(N)N1CCCC1
11.5 (≈ 34 µM)	CC(C)(C)NS(=O)(=O)c1ccc(NC(=O)C2CCCCC2)cc1
> 61	CC(C)c1ccc(NC(=O)c2ccccc2NC(=O)C2CC=CCC2C(=O)O)cc1 (stereo not drawn)
> 47.1	COC(=O)Nc1nn(-c2ccc(OC)cc2)c(=O)c(C#N)c1C
> 55.4	Cc1ccc(S(=O)(=O)N2CCOCC2)cc1C(=O)NC1=NCCS1
> 46	COc1ccc(CNC(=O)CCn2c(C)csc2=O)cc1
16.8 (≈ 53.8 µM)	O=C(CSc1ccc(C(F)(F)F)cn1)Nc1ccccc1
> 50.6	CC(=O)NCCc1nc2ccccc2n1CCOc1ccccc1C
> 52.4	CN1CCN(C(=O)c2ccc(-c3ccc(Br)cc3)o2)CC1
3.1 (≈ 8.9 µM)	Cc1ccccc1CSc1ccc(S(=O)(=O)N2CCCC2)cn1
> 50	S=c1nc(-c2ccccc2)n(Cc2cccnc2)c2c1CCCC2
